Reference: ChEMBL document CHEMBL1201862, “PubChem BioAssay data set” (2004)
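Each compound was tested at five concentrations against cells in 96-well plates for 48 hours. GI50 = concentration required for 50% inhibition of growth.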 Calls of active or inactive are those of the source. No stated cut-off is given here; in the data, active = GI50 up to about 1.1 µM and inactive = higher.

Assays:
Assay in all cases: inhibition of tumour cell growth, NCI panel, 48 h
HOP-62 = test system: HOP-62
SNB-75 = test system: SNB-75
UACC-62 = test system: UACC-62
A498 = test system: A498
SF-268 = test system: SF-268
K562 = test system: K562
RXF 393 = test system: RXF 393
SR = test system: SR
A549 = test system: A549
NCI-H522 = test system: NCI-H522
KM12 = test system: KM12
HCC 2998 = test system: HCC 2998
COLO 205 = test system: COLO 205
T47D = test system: T47D
OVCAR-3 = test system: OVCAR-3
HT-29 = test system: HT-29
SK-MEL-5 = test system: SK-MEL-5
NCI/ADR-RES = test system: NCI/ADR-RES
OVCAR-5 = test system: OVCAR-5
MOLT-4 = test system: MOLT-4
MCF7 = test system: MCF7
HOP-92 = test system: HOP-92
NCI-H226 = test system: NCI-H226
CCRF-CEM = test system: CCRF-CEM
M14 = test system: M14
NCI-H460 = test system: NCI-H460
NCI-H23 = test system: NCI-H23
MDA-MB-231 = test system: MDA-MB-231
U-251 = test system: U-251
786-0 = test system: 786-0
TK-10 = test system: TK-10
LOX IMVI = test system: LOX IMVI
Hs-578T = test system: Hs-578T
CAKI-1 = test system: CAKI-1
UO-31 = test system: UO-31
IGROV-1 = test system: IGROV-1
SN12C = test system: SN12C
SF-295 = test system: SF-295
OVCAR-8 = test system: OVCAR-8
SW-620 = test system: SW-620
ACHN = test system: ACHN
SK-OV-3 = test system: SK-OV-3
EKVX = test system: EKVX
DU-145 = test system: DU-145
MDA-MB-435 = test system: MDA-MB-435
SF-539 = test system: SF-539
RPMI-8226 = test system: RPMI-8226
HCT-116 = test system: HCT-116
UACC-257 = test system: UACC-257

Measured: GI50

COC1O[C@@H]2CCN3C(=O)[C@@H](OC(=O)c4ccc([N+](=O)[O-])cc4)[C@H]1C23 (some centres undefined)
inactive: HOP-62 > 100 µM | SNB-75 > 100 µM | UACC-62 > 100 µM | A498 64.7 µM | SF-268 > 100 µM | K562 > 100 µM | RXF 393 > 100 µM | SR > 100 µM | A549 > 100 µM | NCI-H522 > 100 µM | KM12 > 100 µM | HCC 2998 > 100 µM | COLO 205 > 100 µM | T47D > 100 µM | OVCAR-3 > 100 µM | HT-29 > 100 µM | SK-MEL-5 > 100 µM | NCI/ADR-RES > 100 µM | OVCAR-5 > 100 µM | MOLT-4 > 100 µM | MCF7 > 100 µM | HOP-92 > 100 µM | NCI-H226 > 100 µM | CCRF-CEM > 100 µM | M14 > 100 µM | NCI-H460 > 100 µM | NCI-H23 > 100 µM | MDA-MB-231 > 100 µM | U-251 > 100 µM | 786-0 > 100 µM | TK-10 > 100 µM | LOX IMVI > 100 µM | Hs-578T > 100 µM | CAKI-1 > 100 µM | UO-31 > 100 µM | IGROV-1 > 100 µM | SN12C > 100 µM | SF-295 > 100 µM | OVCAR-8 > 100 µM | SW-620 > 100 µM | ACHN > 100 µM | SK-OV-3 > 100 µM | EKVX > 100 µM | DU-145 > 100 µM | MDA-MB-435 > 100 µM | SF-539 > 100 µM | RPMI-8226 > 100 µM | HCT-116 > 100 µM | UACC-257 > 100 µM
